Where no end group is shown, it is not given here.
Assays:
[1] = system: human cornea model (MCTT HCE^TM); assay: Eye irritation test, human cornea model (MCTT HCE); type: cell-based; conditions: for Cell survival (%Control): 10 min exposure, 18 h post-culture, WST-1; for Average absorption: mean of N1 and N2; for Absorption (N1): replicate N1, WST-1, 450 nm; for Absorption (N2): replicate N2, WST-1, 450 nm
Procedure: To evaluate the eye irritation potential of the peptide, an in vitro experimental model recognized by the OECD as an alternative animal evaluation method, the human cornea model (MCTT HCE^TM), was used. The experiment was conducted according to the standard experimental method provided by the manufacturer, Biosolution (Seoul, Republic of Korea). First, before the experiment, the color interference of the test material was checked, and to begin the experiment, MCTT HCE^TM was incubated for 22 h at 5% CO2 and 37 °C. Next, 40 μL of the peptide was applied to the top of the MCTT HCE^TM and left to react for 10 min. Afterwards, the peptide was removed using DPBS, and MCTT HCE^TM was transferred to a new medium and cultured for 18 h at 5% CO2 and 37 °C. After the culture was completed, 200 μL/well of WST-1 solution diluted at a ratio of 1:25 was added to a new plate, MCTT HCE^TM was transferred thereon, and 100 μL of WST-1 solution was treated inside.

[2] = system: muscle nAChR (TE671 cells expressing nAChRs); assay: In vitro intracellular nicotine response assay; type: cell-based, human; conditions: 400 μM nicotine; for nicotine response: Fura-2-AM 340/380 nm, positive control, mean of three repeated measurements
Procedure: (§1) TE671 rhabdomyosarcoma cell line was purchased from Korea Cell Line Bank (Seoul, Republic of Korea). Dermal fibroblasts (Hs68) were purchased from American Type Culture Collection. Cells were cultured in Dulbecco’s Modified Eagle’s medium (DMEM) and medium containing 10% fetal bovine serum (FBS), 1% penicillin-streptomycin at 37 °C, and up to 5% CO2. Human skin keratinocytes (HEKn) were purchased from Thermo Fisher Scientific (Waltham, MA, USA) and cultured using keratinocyte growth medium, keratinocyte-SFM supplemented with epidermal growth factor (EGF) and bovine pituitary extract (BPE) at 37 °C, and up to 5% CO2.
TE671 cells were cultured in DMEM and medium containing 10% FBS, 1% penicillin-streptomycin at 37 °C, and up to 5% CO2. An 18 mm coverslip was placed on a 12-well cell culture plate, cultured cells were removed with trypsin, and 1 mL was dispensed into each well to make 2 × 10^4 cells/well, followed by culturing for 4 days. The coverslip with the cultured cells was transferred to a new 12-well plate, mixed with 997 μL of HBSS buffer and 3 μL of Fura-2-AM (Invitrogen, Waltham, MA, USA), and incubated for 15 min. After incubation, the remaining Fura-2-AM was removed by washing three times with HBSS buffer, and 1 mL of HBSS buffer was additionally dispensed. After mounting the coverslip in the chamber (Live Cell Instrument, Namyangju-si, Republic of Korea), 500 μL of HBSS buffer was dispensed, and the peptide and nicotine samples to be tested were adjusted according to the concentration. Then, 10 to 20 cells were selected and captured alternately at 340 nm and 380 nm wavelengths at 500 ms intervals through a fluorescence microscope (DMI3000 B, Leica Microsystems, Wetzlar, Germany). The fluorescence ratio at 340/380 nm was calculated using the LAS X program.

nAChRs = conditions: ref [16]; read-out: IC50 (binds to nAChRs and inhibits the action of ACh); cited from earlier work
Excerpt: Muscle contraction is induced by acetylcholine (ACh), a neurotransmitter released from nerve cells. ACh is released into the space between muscles and nerves when synaptic vesicles fuse with the cell membrane through the action of the SNARE (Soluble N-ethylmaleimide-sensitive factor attachment protein receptor) complex within nerve cells. Released ACh binds to nAChR or muscarinic acetylcholine receptor (mAChR) on the muscle cell surface to induce muscle contraction. Facial wrinkles are formed by muscle contraction through the binding of muscle nAChRs (subtypes α1, β1, δ, γ, and ...

nAChR subunit α1 = molecular target: T1, nAChR subunit α1 (Homo sapiens, UniProt P02708); assay: SPR binding affinity to immobilized nAChR subunit α1
T1 construct: purchased MyBioSource MBS963713
T1 sequence (P02708 21-457): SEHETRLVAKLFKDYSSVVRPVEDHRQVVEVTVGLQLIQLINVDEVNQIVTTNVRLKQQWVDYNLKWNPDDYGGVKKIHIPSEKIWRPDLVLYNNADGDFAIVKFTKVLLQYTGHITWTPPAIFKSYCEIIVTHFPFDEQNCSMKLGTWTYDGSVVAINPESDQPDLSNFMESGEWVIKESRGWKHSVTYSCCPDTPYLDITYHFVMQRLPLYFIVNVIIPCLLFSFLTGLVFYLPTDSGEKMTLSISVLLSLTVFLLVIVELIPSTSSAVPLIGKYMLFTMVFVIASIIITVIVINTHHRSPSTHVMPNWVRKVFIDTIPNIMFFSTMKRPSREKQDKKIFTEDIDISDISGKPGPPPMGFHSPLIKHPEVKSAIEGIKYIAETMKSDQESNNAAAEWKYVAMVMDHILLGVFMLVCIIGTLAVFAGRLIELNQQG
Excerpt: The ligand used recombinant human acetylcholine receptor subunit α1, Cat. No. MBS963713 (MyBioSource, San Diego, CA, USA), and SYN®-AKE used dipeptide diaminobutyroyl benzylamide (Cayman Chemical, Ann Arbor, MI, USA). All peptides used in this study were synthesized and supplied by Anygen (Gwangju, Republic of Korea). Phosphate-buffered saline (PBS), Tween 20, polyethylene glycol (weight-averaged molecular weight (MW) = 8000), LB agar, and bovine serum albumin (BSA) were purchased from Sigma-Aldrich (St. Louis, MO, USA). All reagents and cell culture media were purchased from WELGENE (Gyeongsan-si, Republic of Korea). The INCI name for the novel peptide is Palmitoyl Hexapeptide-93. It was synthesized by Incospharm (Daejeon, Republic of Korea), and clinical trials were conducted with a content of 500 ppm (w/v).
The SPR analysis was performed using a BIACORE 3000 (GE healthcare, Chicago, IL, USA). The nAChR subunit α1 was immobilized on a CM5 sensor chip by injecting the protein diluted in PBS (0.2 M phosphate buffer, 0.027 M KCl, 1.37 M NaCl, pH 7.4) at a concentration of 0.35 mg/mL at a flow rate of 5 μL min^−1. After, 5 μM peptide was injected into running buffer (20 mM Tris, pH 7) and its interaction with nAChR subunit α1 was measured at a flow rate of 30 μL min^−1. For kinetic experiments, peptides diluted in running buffer at concentrations ranging from […] to 200, 400, 600, 1000, and 1200 nM were injected at a flow rate of 30 μL min^−1 over the immobilized nAChR subunit α1. The association and dissociation kinetic rate constants (ka and kd) and the equilibrium […], KD, were calculated using BIAevaluation 3.1 software.

dermal fibroblasts = assay: In vitro cell viability (MTT) assay; type: cell-based, human; conditions: 24 h
Procedure: as §1
The in vitro cytotoxicity of the novel peptide on cells was assessed using the MTT [(3-(4,5-dimethylthiazol-2-yl)-2,5-diphenyltetrazolium bromide] cell viability assay. Briefly, dermal fibroblasts were cultured in 24-well plates at a density of 1 × 10^5 cells/well for 18 h. After the medium was removed, the sample diluted in FBS-free medium was added and cultured for 24 h. Then, after the medium was removed, MTT solution was added at a concentration of […] and left to react for 3 h. Unreacted MTT was removed, 100 μL of DMSO was added to dissolve the formed reaction product, and the absorbance at 540 nm was measured and evaluated using an ELISA reader.

human skin = assay: Human skin irritation patch test; type: in vivo
Procedure: The skin irritation test was conducted at CRA Korea Co., Ltd. in the Republic of Korea, with the approval serial number CRA21-HIPTRP1001. The patch used was the IQ Ultra Chamber (Chemotechnique Diagnostics, Vellinge, Sweden). The human skin primary irritation test was completed, with all 31 subjects participating until the end of the study. The test area for the product was the back (excluding the spinal area). The patch was applied for 24 h and then removed. The first evaluation was conducted 30 min after patch removal while waiting for the transient erythema to disappear due to removal, and the second evaluation was conducted 24 h after patch removal. The irritation criterion used a measurement evaluation method designed by Frosch and Kligman by applying the reading standards of the International Contact Dermatitis Research Group (ICDRG).

[3] = methyl acetate (no concentration)
[4] = 0.1ppm, 30 min after patch removal, 31 subjects
[5] = 0.1ppm, 24 hours after patch removal, 31 subjects
[6] = 1ppm, 30 min after patch removal, 31 subjects
[7] = 1ppm, 24 hours after patch removal, 31 subjects
[8] = 10ppm, 30 min after patch removal, 31 subjects
[9] = 10ppm, 24 hours after patch removal, 31 subjects
[10] = 100ppm, 30 min after patch removal, 31 subjects
[11] = 100ppm, 24 hours after patch removal, 31 subjects

In the case of `COC(C)=O` [Methyl acetate, reference compound], the “Average absorption, second value” [1, 3] is reported as 0.066, the “eye irritation judgement (Standard)” value [1, 3] is reported as “Irritant” and the “Cell survival (%Control)” value [1, 3] is reported as 4.70%. For the same compound, the Average absorption [1, 3] was 0.12, the “Absorption (N1)” value [1, 3] was 0.102 and the “Absorption (N2)” value [1, 3] was 0.138.

For “dipeptide diaminobutyroyl benzylamide [SYN®-AKE]”, the nicotine response ([2]; 100 μM) was 98%, the nicotine response ([2]; 250 μM) was 52.5% and the “concentration required to inhibit the nicotinic response” value [2] was 500 µM. For the same compound, the nicotine response ([2]; 500 μM) was 3.5% and the IC50 (nAChRs) was 180000 nM.

In the case of RRGVRR [Peptide 289], the kon (nAChR subunit α1; SPR, 200-1200 nM, 20 mM Tris pH 7, 30 μL/min, read-out: ka) is reported as 14900 M⁻¹ s⁻¹, the Kd (nAChR subunit α1; binding affinity to nAChR subunit α1, bound given in abstract, SPR) is reported as < 1000 nM and the Kd (nAChR subunit α1; equilibrium dissociation constant (KD), SPR, 200-1200 nM, 20 mM Tris pH 7, BIAevaluation 3.1) is reported as 609 nM. The koff (nAChR subunit α1; pH 7, read-out: dissociation rate constant (kd)) was 0.00906 s⁻¹, the “cytotoxicity” value (dermal fibroblasts; 0.1 ppm to 100 ppm, dermal fibroblasts, 540 nm) was “no toxicity” and the “cytotoxicity” value (dermal fibroblasts; up to 100 μg/mL, fibroblasts) was “non-cytotoxic”. For the same compound, the skin irritation judgement (human skin; 0.1ppm) was “No irritation”, the skin reactivity score (human skin; 0.1 ppm to 100 ppm, 24 h patch, back, 31 subjects) was 0.0 ± 0.00 and the “skin irritation” value (human skin; 0.1 ppm to 100 ppm, Frosch and Kligman and COLIPA criteria, 31 subjects) was “non-irritation”. The “Average response (%)” value (human skin; 0.1ppm, 31 subjects) was 0.0±0.00%, the “subjects with 1+ reaction” value (human skin; [4]) was 0 and the “subjects with 2+ reaction” value (human skin; [4]) was 0. For the same compound, the “subjects with 3+ reaction” value (human skin; [4]) was 0, the “subjects with ± reaction” value (human skin; [4]) was 0 and the “subjects with 1+ reaction” value (human skin; [5]) was 0. For the same compound, the “subjects with 2+ reaction” value (human skin; [5]) was 0, the “subjects with 3+ reaction” value (human skin; [5]) was 0 and the “subjects with ± reaction” value (human skin; [5]) was 0. The skin irritation judgement (human skin; 1ppm) was “No irritation”, the “Average response (%)” value (human skin; 1ppm, 31 subjects) was 0.0±0.00% and the “subjects with 1+ reaction” value (human skin; [6]) was 0. The “subjects with 2+ reaction” value (human skin; [6]) was 0, the “subjects with 3+ reaction” value (human skin; [6]) was 0 and the “subjects with ± reaction” value (human skin; [6]) was 0. The “subjects with 1+ reaction” value (human skin; [7]) was 0, the “subjects with 2+ reaction” value (human skin; [7]) was 0 and the “subjects with 3+ reaction” value (human skin; [7]) was 0. For the same compound, the “subjects with ± reaction” value (human skin; [7]) was 0, the skin irritation judgement (human skin; 10ppm) was “No irritation” and the “Average response (%)” value (human skin; 10ppm, 31 subjects) was 0.0±0.00%. For the same compound, the “subjects with 1+ reaction” value (human skin; [8]) was 0, the “subjects with 2+ reaction” value (human skin; [8]) was 0 and the “subjects with 3+ reaction” value (human skin; [8]) was 0. For the same compound, the “subjects with ± reaction” value (human skin; [8]) was 0, the “subjects with 1+ reaction” value (human skin; [9]) was 0 and the “subjects with 2+ reaction” value (human skin; [9]) was 0. For the same compound, the “subjects with 3+ reaction” value (human skin; [9]) was 0, the “subjects with ± reaction” value (human skin; [9]) was 0 and the skin irritation judgement (human skin; 100ppm) was “No irritation”. The “Average response (%)” value (human skin; 100ppm, 31 subjects) was 0.0±0.00%, the “subjects with 1+ reaction” value (human skin; [10]) was 0 and the “subjects with 2+ reaction” value (human skin; [10]) was 0. The “subjects with 3+ reaction” value (human skin; [10]) was 0, the “subjects with ± reaction” value (human skin; [10]) was 0 and the “subjects with 1+ reaction” value (human skin; [11]) was 0. The “subjects with 2+ reaction” value (human skin; [11]) was 0, the “subjects with 3+ reaction” value (human skin; [11]) was 0 and the “subjects with ± reaction” value (human skin; [11]) was 0. The “Average absorption, second value” ([1]; 0.1ppm) was 1.469, the “eye irritation” value ([1]; 0.1 ppm to 100 ppm, MCTT HCE) was “non-irritating” and the “Cell survival (%Control)” value ([1]; 0.1ppm) was 105.30%. For the same compound, the Average absorption ([1]; 0.1ppm) was 1.523, the “Absorption (N1)” value ([1]; 0.1ppm) was 1.461 and the “Absorption (N2)” value ([1]; 0.1ppm) was 1.585. The “Average absorption, second value” ([1]; 1ppm) was 1.553, the “Cell survival (%Control)” value ([1]; 1ppm) was 111.30% and the Average absorption ([1]; 1ppm) was 1.607. For the same compound, the “Absorption (N1)” value ([1]; 1ppm) was 1.558, the “Absorption (N2)” value ([1]; 1ppm) was 1.656 and the “Average absorption, second value” ([1]; 10ppm) was 1.47. For the same compound, the “Cell survival (%Control)” value ([1]; 10ppm) was 105.30%, the Average absorption ([1]; 10ppm) was 1.524 and the “Absorption (N1)” value ([1]; 10ppm) was 1.464. For the same compound, the “Absorption (N2)” value ([1]; 10ppm) was 1.583, the “Average absorption, second value” ([1]; 100ppm) was 1.456 and the “Cell survival (%Control)” value ([1]; 100ppm) was 104.30%. The Average absorption ([1]; 100ppm) was 1.51, the “Absorption (N1)” value ([1]; 100ppm) was 1.563 and the “Absorption (N2)” value ([1]; 100ppm) was 1.456.

Source: article PMC11277145, “Wrinkle-Improving Effect of Novel Peptide That Binds to Nicotinic Acetylcholine Receptor” (International Journal of Molecular Sciences, 2024)
